Data reported in US12396956B2, “Modified release compositions of a gamma-hydroxybutyric acid derivative” (XWPHARMA LTD., priority 2020, dated 2025).

Assay: Oral bioavailability of γ-hydroxybutyric acid from the prodrug
Conditions: in a patient, oral administration

CC(C)[C@H](N)C(=O)OCCCC(=O)O [compound (1), 4-((L-Valyl)oxy)butanoic acid]
oral bioavailability of γ-hydroxybutyric acid: greater than 60 % F
